Experimental data from US20260060908A1, “USE OF FATTY ACIDS FOR MICROBIOME BENEFIT AND COMPOSITIONS COMPRISING THE SAME” (Conopco, Inc., d/b/a UNILEVER, priority 2022, published 2026).

system: S. epidermidis; test: Growth of S. epidermidis in the presence of fatty acids (absorbance 620 nm growth curve); assay type: cell-based; details: Staphylococcus epidermidis; oleic acid, linoleic acid at 0.01% and their combination; control = 100; read-out: % increase over control
Description: Experiments were carried out on the growth of S. Epidermidis in the presence of various fatty acids using the following procedure.
(§1) The microorganism (S. epidermidis or S. hominis as the case may be) was streaked on TSA agar plate and incubated at 37° C. for 24 hr
(§2) The test samples (200 μl) were added to 96 well plate, followed by addition of above set cultures (20 μl).
(§3) The 96 well plate was placed in a Tecan reader and absorbance was read at 620 nm for a period of 24-30 h with a kinetic interval of 1 h
(§4) The values obtained is plotted as a growth curve with X-axis representing time in hour and Y-axis as absorbance read at 620 nm.

Question: How did the activity at 0.01 % turn out when `CCCCCCCC/C=C\CCCCCCCC(=O)O` [Example 11, Oleic acid] was run?
Answer: The activity at 0.01 % was 135%.

Question: With `CCCCC/C=C\C/C=C\CCCCCCCC(=O)O` [Example 12, Linoleic acid] as the compound, how does the activity at 0.01 % read?
Answer: The activity at 0.01 % was 132%.

same assay, conditions: Staphylococcus epidermidis; unsaturated fatty acids at 0.001%; at the end of 24 to 30 hours; control = 100.0; read-out: % increase over control

Question: Which activity at 0.001 % does the source give for `CCCCCCCC/C=C\CCCCCCCC(=O)O` [Example 7, Oleic acid] here?
Answer: The activity at 0.001 % was 132%.

Question: How did the activity at 0.001 % turn out when `CCCCC/C=C\C/C=C\CCCCCCCC(=O)O` [Example 8, Linoleic acid] was run?
Answer: Its activity at 0.001 % is 146%.

Question: For `CCCCCC/C=C\CCCCCCCC(=O)O` [Example G, Palmitoleic acid, reference compound], which activity at 0.001 % is on record?
Answer: Its activity at 0.001 % is 98.4%.

system: S. Hominis; test: Growth of S. hominis in the presence of fatty acids (absorbance 620 nm growth curve); assay type: cell-based; details: saturated fatty acids, concentration per example, at the end of 24 to 30 hours, control = 100.0
Description: • 5% of fatty acid stock is made in DMSO-0.5 g in 10 ml of DMSO • 2.68% of fatty acid (Total volume 5 ml) is made with 2.68 ml of 5% fatty acid stock+[…] of DMSO+0.45 ml of Tween 80. • Test samples: 50 μl 2.68% stock in 4.95 ml 1/10th diluted TSB (test samples)
as §1
Plate cultures of the microorganism was used to set up 0.3 OD620nm (corresponding to log 10^8 CFU/ml) in 1× PBS (pH7.4)
as §2, §3, §4
Experiments similar to those in Table-1 were carried out except that the microorganism used was S. Hominis.

Question: `CCCCCCCCCCCC(=O)O` [D, Lauric acid] was tested. Which “% increase over control” value did it give?
Answer: The value was 63.0%.

Question: For `CCCCCCCCCCCCCC(=O)O` [E, myristic acid], which “% increase over control” value is on record?
Answer: Its value is 52.0%.

Question: `CCCCCCCCCCCCCCCCCCCC(=O)O` [Example 5, arachidic acid] was tested. Which “% increase over control” value did it give?
Answer: Its value is 123.0%.

Question: Which “% increase over control” value does the source give for `CCCCCCCCCCCCCCCCCCCCCCCC(=O)O` [Example 6, lignoceric acid] here?
Answer: Its value is 153.0%.

Question: How did the “% increase over control” value turn out when `CCCCCCCCCCCCCCCC(=O)O` [Example F, palmitic acid] was run?
Answer: The value was 104.0%.
